The text below walks through data of patent US12371454B2, “Cyclic peptide compound having Kras inhibitory action” (priority 2019, dated 2025).

By IC50 is commonly meant the point on the concentration scale where inhibition reaches its midpoint.

Starred links: 1 amine or outer side, 2 acyl side, 3 side chain; linkers in the order of their positions; H or OH if unused. Positions of bridges follow the written chain, without caps; N, C: chain ends. Non-standard residues stand in square brackets, D forms with d. Residues, ends and D or L forms follow the SMILES beside them. *: point of attachment. hPhe(3-Cl-4-CF3) = N[C@@H](CCc1ccc(C(F)(F)F)c(Cl)c1)C(=O)O; NMePhe(4-Cl) = CN[C@@H](Cc1ccc(Cl)cc1)C(=O)O; NMePhe(4-Me) = CN[C@@H](Cc1ccc(C)cc1)C(=O)O; NMePhe(4-F) = CN[C@@H](Cc1ccc(F)cc1)C(=O)O; NMedβ3hAla = C[C@H](CC(=O)[*:2])N(C)[*:1]; NMeAla(cPent) = CN[C@@H](CC1CCCC1)C(=O)O; Phe(3-Cl) = N[C@@H](Cc1cccc(Cl)c1)C(=O)O; Phe(2-OMe) = COc1ccccc1C[C@H](N)C(=O)O; Phe(3-I) = N[C@@H](Cc1cccc(I)c1)C(=O)O; Phe(3-Me) = Cc1cccc(C[C@H](N)C(=O)O)c1; Pro(4,4-F2) = O=C(O)[C@@H]1CC(F)(F)CN1; X70 = CC(C)(O)COCCN(CC(=O)[*:2])[*:1]; NMe4Pal = CN[C@@H](Cc1ccncc1)C(=O)O; NMeCha = CN[C@@H](CC1CCCCC1)C(=O)O; NMeGly(cPr) = CN[C@H](C(=O)O)C1CC1; NMeChg = CN[C@H](C(=O)O)C1CCCCC1; NMeF = CN[C@@H](Cc1ccccc1)C(=O)O; NMeI = CC[C@H](C)[C@H](NC)C(=O)O; NMeD = CN[C@@H](CC(=O)O)C(=O)O; NMeL = CN[C@@H](CC(C)C)C(=O)O; NMeV = CN[C@H](C(=O)O)C(C)C; Pip = O=C(O)[C@@H]1CCCCN1; NMeA = CN[C@@H](C)C(=O)O; NMeAib = CNC(C)(C)C(=O)O; Nle = CCCC[C@H](N)C(=O)O; Piperidide = C1CCN(*)CC1; Pyrrolidide = C1CCN(*)C1; Ac5c = NC1(C(=O)O)CCCC1; Aze = O=C(O)[C@@H]1CCN1; Ac4c = NC1(C(=O)O)CCC1; Sar = CNCC(=O)O

T1 sequence (P01116 1-188 isoform P01116-2 G12D): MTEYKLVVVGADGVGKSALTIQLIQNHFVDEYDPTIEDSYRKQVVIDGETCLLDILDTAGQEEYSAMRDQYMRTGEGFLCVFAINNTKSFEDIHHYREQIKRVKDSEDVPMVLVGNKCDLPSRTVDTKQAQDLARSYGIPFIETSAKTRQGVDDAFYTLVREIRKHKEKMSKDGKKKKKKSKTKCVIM

The assay concerns the target T1, Kras and SOS1 (biotin-tagged human Kras loaded with GDP, His-tagged human SOS1) (Homo sapiens, UniProt P01116, G12D).
T1 construct: made in house; host or cells: E. coli (stated for Kras only)
Briefly: Protein-protein interaction inhibition between Kras and SOS1 (KrasGl2D-SOS PPI) using AlphaScreen. Type of assay: binding. To be noted: AlphaScreen; biotin-tagged human Kras loaded with GDP, His-tagged human SOS1; read-out: KRAS G12D-SOS PPI IC50. In outline: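 AlphaScreen format: Ni donor beads capture His-SOS1, streptavidin acceptor beads capture biotinylated Kras (E. coli-expressed, GDP-loaded post-purification). Excite 680 nm, read 520-620 nm.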
Background: Bead proximity is the source of the signal in Alpha formats.
`CC[C@H](C)[C@@H]1NC(=O)[C@H](CC(C)C)N(C)C(=O)C[C@@H](C(=O)N(C)C)N(C)C(=O)[C@H]([C@@H](C)CC)N(C)C(=O)C2(CCCC2)NC(=O)CN(CCOCC(C)(C)O)C(=O)[C@H](CCc2ccc(C(F)(F)F)c(Cl)c2)NC(=O)CN(C)C(=O)[C@H](CC2CCCCC2)N(C)C(=O)[C@@H]2CCN2C(=O)[C@H](C)N(C)C1=O` [Compound 2028] ([NMeL]I[NMeA][Aze][NMeCha][Sar][hPhe(3-Cl-4-CF3)][X70][Ac5c][NMeI][NMeD]-NMe2; lactam N-11): the IC50 turned out to be 11 nM.

On to `CC[C@H](C)[C@@H]1NC(=O)[C@H](C)N(C)C(=O)C[C@@H](C(=O)N2CCCC2)NC(=O)[C@H](C(C)C)N(C)C(=O)[C@H](Cc2ccccc2)N(C)C(=O)[C@H](Cc2cccc(C)c2)NC(=O)[C@H](Cc2cccc(Cl)c2)NC(=O)CN(C)C(=O)[C@H](Cc2ccc(Cl)cc2)N(C)C(=O)CN(C)C(=O)CN(C)C1=O` [Compound 609] ([NMeA]I[Sar][Sar][NMePhe(4-Cl)][Sar][Phe(3-Cl)][Phe(3-Me)][NMeF][NMeV]D-Pyrrolidide; lactam N-11), for which the IC50 was found to be 110 nM.

Regarding `CC[C@H](C)[C@@H]1NC(=O)[C@H](C)N(C)C(=O)C[C@@H](C(=O)N2CCCCC2)N(C)C(=O)[C@H](C(C)C)N(C)C(=O)C2(CCCC2)NC(=O)[C@@H]2CCCN2C(=O)[C@H](CCc2ccc(C(F)(F)F)c(Cl)c2)NC(=O)[C@H]2CCCN2C(=O)[C@H](Cc2ccc(F)cc2)N(C)C(=O)[C@@H]2CCCN2C(=O)CN(C)C1=O` [Compound 1725] ([NMeA]I[Sar]P[NMePhe(4-F)][dP][hPhe(3-Cl-4-CF3)]P[Ac5c][NMeV][NMeD]-Piperidide; lactam N-11), the IC50 is 23 nM.

With `CC[C@H](C)[C@@H]1NC(=O)[C@H](CC(C)C)N(C)C(=O)C[C@@H](C(=O)N2CCCCC2)N(C)C(=O)[C@H](C2CCCCC2)N(C)C(=O)C2(CCCC2)NC(=O)[C@@H]2CCCCN2C(=O)[C@H](CCc2ccc(C(F)(F)F)c(Cl)c2)NC(=O)CN(C)C(=O)[C@H](CC2CCCCC2)N(C)C(=O)CN(C)C(=O)CN(C)C1=O` [Compound 728] ([NMeL]I[Sar][Sar][NMeCha][Sar][hPhe(3-Cl-4-CF3)][Pip][Ac5c][NMeChg][NMeD]-Piperidide; lactam N-11), the IC50 worked out at 16 nM.

With `CC[C@H](C)[C@@H]1NC(=O)[C@H](CC(C)C)N(C)C(=O)C[C@@H](C)N(C)C(=O)[C@H]([C@@H](C)CC)N(C)C(=O)C2(CCC2)NC(=O)[C@@H]2CC(F)(F)CN2C(=O)[C@H](CCc2ccc(C(F)(F)F)c(Cl)c2)NC(=O)CN(C)C(=O)[C@H](CC2CCCCC2)N(C)C(=O)CN(C)C(=O)CN(C)C1=O` [Compound 891] (cyclo([Ac4c][NMeI][NMedβ3hAla][NMeL]I[Sar][Sar][NMeCha][Sar][hPhe(3-Cl-4-CF3)][Pro(4,4-F2)])), the IC50 was determined as 9.6 nM.

Take `CC[C@H](C)[C@@H]1NC(=O)[C@H](CC(C)C)N(C)C(=O)C[C@@H](C(=O)N2CCCCC2)N(C)C(=O)[C@H](CC(C)C)NC(=O)C(C)(C)N(C)C(=O)[C@H](Cc2ccccc2OC)NC(=O)[C@H](Cc2cccc(I)c2)NC(=O)CN(C)C(=O)[C@H](Cc2ccc(C)cc2)N(C)C(=O)CN(C)C(=O)CN(C)C1=O` [Compound 1100] ([NMeL]I[Sar][Sar][NMePhe(4-Me)][Sar][Phe(3-I)][Phe(2-OMe)][NMeAib]L[NMeD]-Piperidide; lactam N-11): the half-inhibitory concentration (IC50) came to 6.3 nM.

Turning to `CCCC[C@@H]1NC(=O)[C@H](Cc2cccc(I)c2)NC(=O)CN(C)C(=O)[C@H](CC2CCCC2)N(C)C(=O)CN(C)C(=O)CN(C)C(=O)[C@H]([C@@H](C)CC)NC(=O)[C@H](CC(C)C)N(C)C(=O)C[C@@H](C(=O)N2CCCCC2)N(C)C(=O)[C@H](CC(C)C)NC(=O)C(C)(C)N(C)C1=O` [Compound 1423] ([NMeL]I[Sar][Sar][NMeAla(cPent)][Sar][Phe(3-I)][Nle][NMeAib]L[NMeD]-Piperidide; lactam N-11), the IC50 stood at 190 nM.

Take `CC[C@H](C)[C@@H]1NC(=O)[C@H](CC(C)C)N(C)C(=O)C[C@@H](C)N(C)C(=O)[C@H](C2CC2)N(C)C(=O)C2(CCCC2)NC(=O)[C@@H]2CCCN2C(=O)[C@H](CCc2ccc(C(F)(F)F)c(Cl)c2)NC(=O)CN(C)C(=O)[C@H](CC2CCCCC2)N(C)C(=O)CN(C)C(=O)CN(C)C1=O` [Compound 874] (cyclo([Ac5c][NMeGly(cPr)][NMedβ3hAla][NMeL]I[Sar][Sar][NMeCha][Sar][hPhe(3-Cl-4-CF3)]P)): the IC50 worked out at 25 nM.

Regarding `CC[C@H](C)[C@@H]1NC(=O)[C@H](CC(C)C)N(C)C(=O)C[C@@H](C(=O)N(C)C)N(C)C(=O)[C@H]([C@@H](C)CC)N(C)C(=O)[C@H](C(C)C)NC(=O)[C@H](Cc2ccncc2)N(C)C(=O)[C@H](CCc2ccc(C(F)(F)F)c(Cl)c2)NC(=O)CN(C)C(=O)[C@H](Cc2ccc(C)cc2)N(C)C(=O)[C@@H]2CCN2C(=O)[C@H](C)N(C)C1=O` [Compound 1897] ([NMeL]I[NMeA][Aze][NMePhe(4-Me)][Sar][hPhe(3-Cl-4-CF3)][NMe4Pal]V[NMeI][NMeD]-NMe2; lactam N-11), the IC50 was 9.9 nM.
